Tests used:
Assay type in all cases: functional
Design in all cases: concentration or dose not given beside the values
Plasmodium berghei = assay: MMV: P. berghei-infected blood was withdrawn from mice by cardiac pucture before being immediately added to ookinete culture medium containing test compounds. 26 hr later, GFP-positive ookinetes were identified and counted by automated microscopy. All compounds were tested in 4 independent experiments and data presented here is the mean.
Plasmodium falciparum [1] = assay: (§1) MMV: P. falciparum NF54 functionally mature Stage V gametocytes were incubated for 24 hr in the presence of the test compounds. Gamete formation was then triggered by addition of 2uM xantheurenic acid and temperature decrease to ~20C. Male gamete exflagellation was recorded and analysed by automated microscopy after 20 min. All compounds were tested in 4 independent experiments and data presented here is the mean.
Plasmodium falciparum [2] = assay: as §1, with “Female” for “Male”, “formation” for “exflagellation”, “24 hr later” for “and analysed”, “detection of surface labelling of female gametes with a Cy3-conjugated antibody reactive to Pfs25.” for “after 20 min.”; settings: NF54, 24 h

Structure (SMILES): CCOc1ccc(N2C(N)=NC(N)=NC2(C)C)cc1.Cl
- inhibition (Plasmodium berghei): -12.23%
- inhibition (Plasmodium falciparum [1]): 66.8%
- inhibition (Plasmodium falciparum [2]): -42%

Structure (SMILES): CC(C)(C)C(=O)Nc1ccc(C(=O)Nc2cccc(-c3nc4ccccc4[nH]3)c2)cc1
- inhibition (Plasmodium berghei): 14.15%
- inhibition (Plasmodium falciparum [1]): 11%
- inhibition (Plasmodium falciparum [2]): -2.43%

Structure (SMILES): CNCCCNc1ccnc2cc(Cl)ccc12
- inhibition (Plasmodium berghei): 0.238%
- inhibition (Plasmodium falciparum [1]): -17.2%
- inhibition (Plasmodium falciparum [2]): -3.53%

Structure (SMILES): COc1ccc(CN2CCN(Cc3ccccc3)CC2)c(O)c1
- inhibition (Plasmodium berghei): -17.51%
- inhibition (Plasmodium falciparum [1]): -11.1%
- inhibition (Plasmodium falciparum [2]): -16.4%

Structure (SMILES): c1ccc(Cn2c(N=Nc3c(Nc4ccccc4)ccc4ccccc34)nc3ccccc32)cc1
- inhibition (Plasmodium berghei): 7.124%
- inhibition (Plasmodium falciparum [1]): -0.509%
- inhibition (Plasmodium falciparum [2]): 7.17%

Structure (SMILES): COc1ccc(C(=O)Nc2ccc3nc(N4CCCCC4)cc(C)c3c2)cc1OC
- inhibition (Plasmodium berghei): -18.9%
- inhibition (Plasmodium falciparum [1]): 9.9%
- inhibition (Plasmodium falciparum [2]): -48%

Structure (SMILES): Cc1cccc(N2C(=O)C3C(C2=O)C2(c4ccccc4)C(=O)C3(c3ccccc3)C(c3ccc4c(c3)OCO4)=C2c2ccc3c(c2)OCO3)c1 (stereo unspecified)
- inhibition (Plasmodium berghei): -6.32%
- inhibition (Plasmodium falciparum [1]): 32.3%
- inhibition (Plasmodium falciparum [2]): -2.01%

Structure (SMILES): COc1ccc2c(c1)OC(O)(C(F)(F)C(F)(F)F)CC2=O (stereo unspecified)
- inhibition (Plasmodium berghei): -0.6954%
- inhibition (Plasmodium falciparum [1]): -139%
- inhibition (Plasmodium falciparum [2]): -4.89%

Structure (SMILES): Cc1ccnc(NC(c2cccc(OCc3ccccc3)c2)c2ccc3cccnc3c2O)c1 (stereo unspecified)
- inhibition (Plasmodium berghei): -0.9408%
- inhibition (Plasmodium falciparum [1]): 11%
- inhibition (Plasmodium falciparum [2]): -12.7%

Structure (SMILES): CCOc1ccc2nc(C)cc(Nc3ccc(N(C)C)cc3)c2c1.Cl
- inhibition (Plasmodium berghei): -13.58%
- inhibition (Plasmodium falciparum [1]): -23.6%
- inhibition (Plasmodium falciparum [2]): -42.3%

Structure (SMILES): COc1ccccc1N1C(=N)SC(=Cc2ccc(OCc3ccccc3F)cc2)C1=O
- inhibition (Plasmodium berghei): 33.34%
- inhibition (Plasmodium falciparum [1]): 12.8%
- inhibition (Plasmodium falciparum [2]): 10.4%

Structure (SMILES): CCCCc1ccc(NS(=O)(=O)c2cc3c4c(c2)CCN4C(=O)CC3)cc1
- inhibition (Plasmodium berghei): -6.551%
- inhibition (Plasmodium falciparum [1]): 15.5%
- inhibition (Plasmodium falciparum [2]): -27.1%

Structure (SMILES): CCOC(=O)c1cnc2ccc(Cl)cc2c1NCCCN(C)C
- inhibition (Plasmodium berghei): -2.955%
- inhibition (Plasmodium falciparum [1]): -9.15%
- inhibition (Plasmodium falciparum [2]): -11.1%

Structure (SMILES): CC(=O)c1ccc(NC(=O)CSc2nc(-c3ccccc3Cl)ns2)cc1
- inhibition (Plasmodium berghei): -19.34%
- inhibition (Plasmodium falciparum [1]): 33.1%
- inhibition (Plasmodium falciparum [2]): 2.09%

Structure (SMILES): Cn1c(C(=O)c2cccc3ccccc23)nc2ccccc21
- inhibition (Plasmodium berghei): -7.647%
- inhibition (Plasmodium falciparum [1]): -24.7%
- inhibition (Plasmodium falciparum [2]): -20.6%

Structure (SMILES): COc1ccc(C2N(C)c3ccccc3N2C)cc1
- inhibition (Plasmodium berghei): -4.492%
- inhibition (Plasmodium falciparum [1]): 10.4%
- inhibition (Plasmodium falciparum [2]): 24.3%

Structure (SMILES): O=C(Nc1ccc(Cl)cc1C(=O)Nc1ccncc1)c1ccc(Cl)cc1Cl
- inhibition (Plasmodium berghei): 36.2%
- inhibition (Plasmodium falciparum [1]): 7.46%
- inhibition (Plasmodium falciparum [2]): 9.34%

Structure (SMILES): COc1ccc(-c2nc(NC(=O)CS(=O)(=O)c3ccc(F)cc3)sc2C)cc1
- inhibition (Plasmodium berghei): -6.755%
- inhibition (Plasmodium falciparum [1]): -20.9%
- inhibition (Plasmodium falciparum [2]): 7.25%

Structure (SMILES): Cc1ccc(-c2cc(C(=O)Nc3ccc(S(=O)(=O)N4CCCCC4)cc3)[nH]n2)c(O)c1
- inhibition (Plasmodium berghei): -10.93%
- inhibition (Plasmodium falciparum [1]): 7.64%
- inhibition (Plasmodium falciparum [2]): -11.2%

Structure (SMILES): COc1ccc(NC(=O)C2c3ccccc3C(=O)N(CC(C)C)C2c2cccs2)cc1Cl (stereo unspecified)
- inhibition (Plasmodium berghei): -15.31%
- inhibition (Plasmodium falciparum [1]): 8.99%
- inhibition (Plasmodium falciparum [2]): -2.16%

Structure (SMILES): CN1CCN(c2ccc(Nc3c4ccccc4nc4ccccc34)cc2)CC1
- inhibition (Plasmodium berghei): 3.384%
- inhibition (Plasmodium falciparum [1]): 56.4%
- inhibition (Plasmodium falciparum [2]): -3.1%

Structure (SMILES): Cc1ccc(S(=O)(=O)c2c(COC(=O)c3cccc(C)c3)c(-c3ccccc3)nn2C)cc1
- inhibition (Plasmodium berghei): -10.49%
- inhibition (Plasmodium falciparum [1]): -0.37%
- inhibition (Plasmodium falciparum [2]): -31.3%

Structure (SMILES): COc1ccc(-c2cn3c(C(=O)Nc4ccccc4Cl)c(-c4ccccc4)c4c3n2CCCC4)cc1
- inhibition (Plasmodium berghei): 15.55%
- inhibition (Plasmodium falciparum [1]): -67.8%
- inhibition (Plasmodium falciparum [2]): -34.6%

Structure (SMILES): COc1cc2c3cc1Oc1c(OC)c(OC)cc4c1C(Cc1ccc(O)c(c1)Oc1ccc(cc1)CC3N(C)CC2)N(C)CC4.Cl (stereo unspecified)
- inhibition (Plasmodium berghei): -16.79%
- inhibition (Plasmodium falciparum [1]): -64.1%
- inhibition (Plasmodium falciparum [2]): -37.2%

Structure (SMILES): Oc1ccc(Cl)cc1CNc1nc2ccccc2[nH]1
- inhibition (Plasmodium berghei): -5.247%
- inhibition (Plasmodium falciparum [1]): 53.3%
- inhibition (Plasmodium falciparum [2]): -26.8%

Structure (SMILES): CCCc1cc(O)c2c3c(c(=O)oc2c1)CN(C)CC3
- inhibition (Plasmodium berghei): -29.34%
- inhibition (Plasmodium falciparum [1]): 2.76%
- inhibition (Plasmodium falciparum [2]): -29.9%

Structure (SMILES): Cc1ccc(NC(=O)Nc2cccc(Cl)c2)cc1F
- inhibition (Plasmodium berghei): -16.5%
- inhibition (Plasmodium falciparum [1]): 2.14%
- inhibition (Plasmodium falciparum [2]): -4.87%

Structure (SMILES): OC(Cn1nnc2ccccc21)Cn1c2ccc(Br)cc2c2cc(Br)ccc21 (stereo unspecified)
- inhibition (Plasmodium berghei): -0.4033%
- inhibition (Plasmodium falciparum [1]): 33.4%
- inhibition (Plasmodium falciparum [2]): -23.3%

Structure (SMILES): Br.CCN(CC)S(=O)(=O)c1ccc(-c2csc(Nc3ccc(C)c(C)c3)n2)cc1
- inhibition (Plasmodium berghei): -11.5%
- inhibition (Plasmodium falciparum [1]): 21.9%
- inhibition (Plasmodium falciparum [2]): -51.5%

Structure (SMILES): CCN(CC)c1ccc(NC(=O)c2cccs2)cc1
- inhibition (Plasmodium berghei): 23.39%
- inhibition (Plasmodium falciparum [1]): 44.7%
- inhibition (Plasmodium falciparum [2]): -5.42%

Structure (SMILES): CN(C)c1ccc(C=Cc2nc(=O)c3ccccc3o2)cc1
- inhibition (Plasmodium berghei): 54.94%
- inhibition (Plasmodium falciparum [1]): 17.6%
- inhibition (Plasmodium falciparum [2]): -16.7%

Structure (SMILES): CCN(CC)CCNc1ncnc2c1[nH]c1ccc(Br)cc12
- inhibition (Plasmodium berghei): 9.06%
- inhibition (Plasmodium falciparum [1]): -106%
- inhibition (Plasmodium falciparum [2]): 13.8%

— ChEMBL document CHEMBL3301451, “MMV Malaria Box gametocyte functional viability assay screening”
